This note sets out measurements from patent publication US20080207522A1, “Antimicrobial Peptides” (priority 2004, published 2008).

Assay [1] deals with Pseudomonas aeruginosa strain H1001 fliC::luxCDABE. Nature of the assay: Luminescence-based assay for the non-cleaved (bound) peptides on cellulose membranes. Type of assay: cell-based. The settings on record: for Luminescence at the given time in minutes: 0 / Luminescence at the given time in minutes: 20 / Luminescence at the given time in minutes: 40 / Luminescence at the given time in minutes: 60 / Luminescence at the given time in minutes: 80 / Luminescence at the given time in minutes: 100 / Luminescence at the given time in minutes: 120 / Luminescence at the given time in minutes: 180 / Luminescence at the given time in minutes: 240: cellulose-bound peptide; for Luminescence at the given time in minutes: 0: 0 min; for Luminescence at the given time in minutes: 20: 20 min; for Luminescence at the given time in minutes: 40: 40 min; for Luminescence at the given time in minutes: 60: 60 min; for Luminescence at the given time in minutes: 80: 80 min; for Luminescence at the given time in minutes: 100: 100 min; for Luminescence at the given time in minutes: 120: 120 min; for Luminescence at the given time in minutes: 180: 180 min; for Luminescence at the given time in minutes: 240: 240 min; for Activity Class bound: uncleaved cellulose-bound peptides. In a few lines:
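Peptides remained bound to cellulose spots, which were ethanol-washed and equilibrated in 100 mM Tris pH 7.3. Constitutively lux-expressing P. aeruginosa (OD600 0.35 culture diluted 1:25) added in 10 mM Tris-HCl pH 7.3, 20 mM glucose at 37° C. Luminescence (RLU) followed over 14 time points; peptides binned into six activity classes.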

Assay [2] has as its system Pseudomonas aeruginosa strain H1001. Nature of the assay: Assay for the cleaved (free, soluble) peptides from cellulose support, luminescence killing assay. Type of assay: cell-based. The note with it: free (cleaved) peptides, killing relative to Bac2A. Also noted: key: 1: Peptides showing stronger killing than Bac2A at a 4 to 8-fold higher dilution; Peptides showing stronger killing compared to that of Bac2A at a 4-fold higher dilution; 3: Peptides similar to Bac2A; 4: Peptides similar to Bac2A at the highest concentration but demonstrating weaker killing at a 2-fold dilution; 5: Peptides giving very weak or no killing at a 2-fold dilution; 6: Peptides with weak killing activity at the highest concentration. An outline of the steps:
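Cellulose-synthesized peptides (amidated C-terminus, two β-alanines) cleaved by ammonia, released from punched spots 30 min at 37 °C, then serially diluted. P. aeruginosa H1001 (constitutive fliC::luxCDABE) overnight culture diluted 1:500 in LB or 100 mM Tris pH 7.3/20 mM glucose. Killing followed as time-dependent luminescence loss at 37 °C.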

Consider RVLRVVRAAIRI [Bac035], for which, in assay [1], the “Luminescence at the given time in minutes: 0” value (“Luminescence … in minutes: 0” below) was found to be 5199 RLU, the “Luminescence at the given time in minutes: 20” value (from here on “Luminescence … in minutes: 20”) is 6461 RLU, the “Luminescence at the given time in minutes: 40” value (“Luminescence … in minutes: 40” below) came out at 4989 RLU and the “Luminescence at the given time in minutes: 60” value (shortened to “Luminescence … 60”) turned out to be 4389 RLU. Besides, in assay [1], the “Luminescence at the given time in minutes: 80” value (“Luminescence … in minutes: 80” for short) is recorded as 4001 RLU, the “Luminescence at the given time in minutes: 100” value (“Luminescence … 100” below) came to 3439 RLU, the “Luminescence at the given time in minutes: 120” value (“Luminescence … 120” below) is recorded as 3162 RLU and the “Luminescence at the given time in minutes: 180” value (“Luminescence … 180” below) came to 2456 RLU. In addition, in assay [1], the “Luminescence at the given time in minutes: 240” value (“Luminescence … 240” below) is reported as 2577 RLU and the “Activity Class bound” value is 5 (Peptides reducing luminescence (lux) values to between 1500 to 3000 after 240 min.). Moreover, the “Activity Class Soluble” value in assay [2] was determined as 5.
With VARIVVRLIRAR [Bac013], in assay [1], the “Luminescence … in minutes: 0” value amounted to 3890 RLU, the “Luminescence … in minutes: 20” value amounted to 6850 RLU, the “Luminescence … in minutes: 40” value was found to be 3930 RLU and the “Luminescence … 60” value was 1584 RLU. Further, in assay [1], the “Luminescence … in minutes: 80” value is on record as 494 RLU, the “Luminescence … 100” value is on record as 193 RLU, the “Luminescence … 120” value is recorded as 111 RLU and the “Luminescence … 180” value worked out at 100 RLU. For the same sequence, in assay [1], the “Luminescence … 240” value was determined as 66 RLU and the “Activity Class bound” value is on record as 3 (Peptides similar to Bac2A resulting in lux values of less than 500 after 240 min.). Besides, the “Activity Class Soluble” value in assay [2] was found to be 3.
Turning to VIALRIAVRRVR [Bac045], in assay [1], the “Luminescence … in minutes: 0” value is 4873 RLU, the “Luminescence … in minutes: 20” value came to 6105 RLU, the “Luminescence … in minutes: 40” value was 2726 RLU and the “Luminescence … 60” value turned out to be 554 RLU. Also, in assay [1], the “Luminescence … in minutes: 80” value was found to be 83 RLU, the “Luminescence … 100” value is listed as 61 RLU, the “Luminescence … 120” value is reported as 37 RLU and the “Luminescence … 180” value was determined as 57 RLU. Also, in assay [1], the “Luminescence … 240” value turned out to be 35 RLU and the “Activity Class bound” value is given as 3 (Peptides similar to Bac2A resulting in lux values of less than 500 after 240 min.). Moreover, the “Activity Class Soluble” value in assay [2] was found to be 3.
For VIALVRARVRRI [Bac049], in assay [1], the “Luminescence … in minutes: 0” value is 4926 RLU, the “Luminescence … in minutes: 20” value is reported as 7239 RLU, the “Luminescence … in minutes: 40” value is 5219 RLU and the “Luminescence … 60” value was 4106 RLU. Moreover, in assay [1], the “Luminescence … in minutes: 80” value came to 3188 RLU, the “Luminescence … 100” value is reported as 2524 RLU, the “Luminescence … 120” value turned out to be 2059 RLU and the “Luminescence … 180” value came out at 1687 RLU. Also, in assay [1], the “Luminescence … 240” value is reported as 1794 RLU and the “Activity Class bound” value is reported as 5 (Peptides reducing luminescence (lux) values to between 1500 to 3000 after 240 min.). The “Activity Class Soluble” value in assay [2] worked out at 3.
For VILARRRVRIAV [Bac017], in assay [1], the “Luminescence … in minutes: 0” value came to 4219 RLU, the “Luminescence … in minutes: 20” value came to 7259 RLU, the “Luminescence … in minutes: 40” value was determined as 5041 RLU and the “Luminescence … 60” value came to 3136 RLU. For the same sequence, in assay [1], the “Luminescence … in minutes: 80” value is reported as 1907 RLU, the “Luminescence … 100” value was found to be 1047 RLU, the “Luminescence … 120” value worked out at 578 RLU and the “Luminescence … 180” value is 321 RLU. For the same sequence, in assay [1], the “Luminescence … 240” value amounted to 214 RLU and the “Activity Class bound” value is recorded as 3 (Peptides similar to Bac2A resulting in lux values of less than 500 after 240 min.). The “Activity Class Soluble” value in assay [2] is recorded as 5.
For VIVRLAARRVRI [Bac028], in assay [1], the “Luminescence … in minutes: 0” value stood at 5001 RLU, the “Luminescence … in minutes: 20” value was 6828 RLU, the “Luminescence … in minutes: 40” value stood at 5315 RLU and the “Luminescence … 60” value was determined as 5037 RLU. Moreover, in assay [1], the “Luminescence … in minutes: 80” value is 4555 RLU, the “Luminescence … 100” value was determined as 4143 RLU, the “Luminescence … 120” value is on record as 3762 RLU and the “Luminescence … 180” value came to 3646 RLU. Moreover, in assay [1], the “Luminescence … 240” value is given as 4268 RLU and the “Activity Class bound” value is reported as 6 (Peptides having residual luminescence (lux) values greater than 3000 after 240 min.). In addition, the “Activity Class Soluble” value in assay [2] is 5.
For the sequence VLARVVARRIRI [Bac040], in assay [1], the “Luminescence … in minutes: 0” value came to 4220 RLU, the “Luminescence … in minutes: 20” value came to 6241 RLU, the “Luminescence … in minutes: 40” value is 4269 RLU and the “Luminescence … 60” value is 3951 RLU. In assay [1], the “Luminescence … in minutes: 80” value stood at 3368 RLU, the “Luminescence … 100” value was 2880 RLU, the “Luminescence … 120” value was 2761 RLU and the “Luminescence … 180” value stood at 2300 RLU. In assay [1], the “Luminescence … 240” value came out at 2415 RLU and the “Activity Class bound” value is on record as 5 (Peptides reducing luminescence (lux) values to between 1500 to 3000 after 240 min.). Further, the “Activity Class Soluble” value in assay [2] is 5.
As to VLIRIRRVARAV [Bac008], in assay [1], the “Luminescence … in minutes: 0” value is 3718 RLU, the “Luminescence … in minutes: 20” value came to 6695 RLU, the “Luminescence … in minutes: 40” value stood at 5154 RLU and the “Luminescence … 60” value is 4426 RLU. In assay [1], the “Luminescence … in minutes: 80” value amounted to 3671 RLU, the “Luminescence … 100” value stood at 3164 RLU, the “Luminescence … 120” value stood at 2786 RLU and the “Luminescence … 180” value worked out at 2703 RLU. Moreover, in assay [1], the “Luminescence … 240” value is 2890 RLU and the “Activity Class bound” value is given as 5 (Peptides reducing luminescence (lux) values to between 1500 to 3000 after 240 min.). Besides, in assay [2], the “Activity Class Soluble” value turned out to be 2.
In the case of VVIRAAIRRVRL [Bac038], in assay [1], the “Luminescence … in minutes: 0” value is 5024 RLU, the “Luminescence … in minutes: 20” value amounted to 7158 RLU, the “Luminescence … in minutes: 40” value is recorded as 5307 RLU and the “Luminescence … 60” value was determined as 4676 RLU. In addition, in assay [1], the “Luminescence … in minutes: 80” value is listed as 4112 RLU, the “Luminescence … 100” value came to 3323 RLU, the “Luminescence … 120” value is reported as 2739 RLU and the “Luminescence … 180” value is given as 2466 RLU. Moreover, in assay [1], the “Luminescence … 240” value stood at 2576 RLU and the “Activity Class bound” value is recorded as 5 (Peptides reducing luminescence (lux) values to between 1500 to 3000 after 240 min.). Moreover, the “Activity Class Soluble” value in assay [2] was found to be 5.
